Source: patent US10093712B2, “Immunostimulatory compositions and uses thereof” (Susavion Biosciences, Inc., priority 2004, dated 2018)
Where two headings read alike, the source gives them in different places. Where no end group is shown, it is not given here.

Columns and labels:
[1] = tested on: canine peripheral blood macrophages; experiment: Phagocytosis of fluorescently labeled bacterial cells, trypan blue quench, microscopy; assay type: cell-based; conditions: for phagocytosis of bacterial cells: then bacterial cells 10 minutes
Procedure: FIG. 9. Microscopic analysis of phagocytosis of fluorescently labeled bacterial cells by adherent cells from canine peripheral blood samples. […] The sample was treated 15 h with 5 nM branched peptide mimetic and then incubated with fluorescently-labeled bacterial cells for 10 min. Fluorescence of bacterial cells that remained extracellular was quenched with trypan blue. […] The samples were not treated with the peptide mimetic, and most of the cells, as in (D) were not fluorescent. A very low level of fluorescence, evidence of low phagocytic activity, was occasionally seen, as shown in (C). Gain was set to maximize detection of fluorescence. Such control samples show the highest level of phagocytosis of bacterial that we have observed. In many experiments, control cells show no fluorescence.
(§1) Phagocytosis: Phagocytosis was measured by the uptake of fluorescently-labeled bacterial cells (Molecular Probes, Inc.) or fluorescent polystyrene beads (Polyscience, Inc). Phagocytosis can be quantitated by quenching extracellular (unphagocytized) bacterial cells by addition of the dye trypan blue to the suspension and measuring the remaining (intracellular) fluorescence (Wan et al., 1993).
In one experiment, canine peripheral blood macrophages were treated for 15 hours with 5 nM branched polypeptide (FIG. 4), and then incubated with bacterial cells for 10 minutes, followed by microscopic analysis. Fluorescence of bacterial cells that remained extracellular was quenched with trypan blue. […] (See FIG. 9)
In another experiment, adherent canine peripheral blood cells were treated for 5 hours with 10 nM branched polypeptide (FIG. 4) and then washed. Fluorescent bacterial cells were added, and after 10 minutes, trypan blue was added to quench extracellular bacterial cells. Cells were examined by light microscopy and then by fluorescent microscopy. Contrast in the fluorescent images was maximized to detect any fluorescence in control samples. […] Treated and control samples were from the same dog.

[2] = tested on: recurring, advanced cancer; conditions: for quality of life: canine cancer patients, subjective; for tumor load / size of the primary tumor: several patients / some cases
Procedure: Owners of dogs that were used to obtain preliminary data were required to sign informed consent and agreement to necropsy forms. Dogs with histologically or cytologically confirmed cancer were given the polypeptide mimetic at doses of 100 to 1,500µg by weekly perfusion into the blood or subcutaneously 3 times per week. The effective dose of the glycopeptide used by Schneider et al. (2003) was 0.4 ng/g body weight given every other day. On this basis, a minimal weekly dose should be 1.4 ng/g body weight. For a large animal (80 lb or 36 kg dog), the starting, minimal-effective, weekly dose of the synthetic mimetic polypeptide would therefore be 50µg or 6.8 nmoles. For initial studies, the mimetic polypeptide (FIG. 4) was administered at a 20-fold higher dose.

[3] = tested on: adherent peripheral blood cells; experiment: Oxidative burst of adherent peripheral blood cells, change in absorbance of cytochrome c after PMA; assay type: cell-based
Procedure: FIG. 7. Response of adherent peripheral blood cells to mimetic peptides. Reduction of cytochrome c by superoxide anion radical is indicated by an increase in absorbance (OD), whereas a loss of absorbance indicates destruction of the cytochrome. (A) Total adherent cells from 300 μl of blood were assayed. Samples 1 and 2 contained 5 nM and 2.5 nM branched mimetic peptide, respectively. Samples 3 and 4 contained 5 nM and 2.5 nM linear mimetic peptide, respectively. Sample 5 contained 50 ng/ml lipopolysaccharide (weight equivalent to 6 nM peptide). Sample 6, untreated control cells. (B) Adherent cells were scraped from the surface and 1×10^5 cells were placed in each well. The assay was performed as in (A). Samples 1 and 2 contained 10 nM and 5 nM mimetic peptide, respectively. Samples 3 and 4 contained 10 nM and 5 nM linear peptide, respectively. Sample 5 contained 50 ng/ml lipopolysaccharide. Sample 6, untreated control cells.
(§2) Oxidative burst: Peripheral blood samples were removed from animals and 300 μl added to wells of a 96-well microtiter plate and incubated overnight at 38° C. in a standard CO2-incubator. The nonadherent cells, including erythrocytes, and serum were removed and centrifuged to pellet cells and obtain cell-free serum. RPMI 1640 medium containing 2 to 10% serum from the same animal were added to each well and incubation of the culture is continued for various periods of time. The polypeptide mimetic was then added to a concentration of 1 to 10 nM and incubation continued for 3 h.
One type of assay of cellular activity measures the response of adherent cells to the polypeptide mimetic by the change in absorbance of cytochrome c (Johnston et al., 1978; Pick and Mizel, 1981). Phorbol 12-myristate 13-acetate (PMA) was added to 140 nM and then cytochrome c was added to 15 μM. Change in absorbance was monitored continuously at 550 nm over 20 min. With 300 μl in each well, reduction of cytochrome c was calculated as: Δnanomoles=absorbance at 550 nm×100/2.1 (Pick and Mizel, 1981). Positive control samples were run with lipopolysaccharide, a known stimulator of macrophage activity. Negative controls lack stimulant.
The oxidative burst upon addition of PMA involves production of the superoxide anion radical. The superoxide anion radical is a strong reducing agent and reduces cytochrome c, which is detected by an increase in absorbance of the sample. Additionally, these cells produce the nitric oxide radical, which reacts with superoxide anion radical at diffusion-limited rates to produce the strong oxidant, peroxynitrite anion (Ischiropoulos et al., 1992). These strong oxidants apparently cause loss of absorbance of the cytochrome.
Without treatment with the polypeptide, again no change in absorbance of the cytochrome was detected.

[4] = tested on: adherent macrophages or neutrophils from canine peripheral blood; experiment: Phagocytosis of fluorescent polystyrene beads; assay type: cell-based; conditions: 3.4 nM (25 ng/ml)
Procedure: as §1
Phagocytosis of polystyrene beads: Peripheral blood from the canines was added to confocal dishes and incubated over night to allow macrophage adherence. The cells were washed away with PBS, HBSS, or RPMI. Only adherent macrophages or neutrophils remained on the glass surface and were left to incubate in the above mentioned buffers. Polypeptide was then added at 3.4 nM (25 ng/ml) for a 5-hour incubation. At this point, beads were added for a 10-minute incubation. All incubations were done in 37° C. with 5% CO2.

[5] = tested on: peripheral blood adherent cells; experiment: Pyrogallol oxidation initiated by superoxide anion radical from peripheral blood adherent cells; assay type: cell-based; conditions: 3.4, 1.7 or 0.7 nM versus 50 ng/ml lipopolysaccharide, FIG. 8
Procedure: FIG. 8. Assay of pyrogallol oxidation initiated by superoxide anion radical generation by peripheral blood adherent cells treated with stimulants. Samples 1, 2, and 3, contained 3.4, 1.7 or 0.7 nM (25, 12.5 or 5 ng/ml) of the branched mimetic, respectively. Sample 4 contained 50 ng/ml lipopolysaccharide. Sample 5, untreated control cells.
as §2
The response of cells to the polypeptide was also assayed by oxidation of pyrogallol (Marldund and Marklund, 1974) in a reaction initiated by superoxide anion radical (FIG. 8).

[6] = pH 7.4
Source text: The product was dried and then dissolved in sterile phosphate buffered saline, pH 7.4.

[(VQATQSNQHTPRGGGS)2K]2K.beta.AC (not fully specified (C-terminus); printed as [(VQATQSNQHTPRGGGS)2K]2K.beta.AC; also: four-branch lysine core [(seq)2K]2K, betaAla-Cys on core) [branched polypeptide mimetic]
phagocytosis of bacterial cells ([1]; 5 nM for 15 hours): dramatically increased phagocytosis
attachment of neutrophils ([1]; 10 nM for 5 hours): more of the smaller neutrophils become attached
phagocytosis of bacterial cells ([1]; 10 nM for 5 hours): dramatically increased phagocytosis
quality of life ([2]; listed as branched peptide mimetic): dramatic improvement in quality of life
quality of life ([2]; listed as polypeptide): remarkable extension and improvement in the quality of life
quality of life ([2]; listed as polypeptide mimetic): dramatically enhanced
survival on the treatment ([2]; several animals, advanced cancer): ≥ 6 months
extension of life ([2]; several canine patients with advanced cancer): extension of life beyond what would be normally expected
behavior ([2]; several patients): restored to pre-disease activities
tumor load / size of the primary tumor ([2]; listed as polypeptide): reduction in size of the primary tumor
tumor load / size of the primary tumor ([2]; listed as polypeptide mimetic): reduction in tumor load was detected
oxidative burst response compared with linear polypeptide ([3]; FIG. 7): stronger response than the linear polypeptide
change in absorbance of cytochrome c ([3]; higher concentrations of polypeptide (5 to 10 nM), FIG. 7A): rapid loss of absorbance
change in absorbance of cytochrome c ([3]; low concentrations of mimetic polypeptide (1 nM), PMA 140 nM, cytochrome c 15 μM, 550 nm): increase in absorbance of cytochrome c
rate of reduction of cytochrome c ([3]; lowered cell number (1×10^5 cells per well), FIG. 7B): correlated with the amount of polypeptide mimetic added
oxidative burst response compared with lipopolysaccharide ([3]; on an equal weight basis): even stronger than to lipopolysaccharide
detachment of neutrophils from the surface [4]: induced detachment of neutrophils from the surface
phagocytosis of polystyrene beads ([4]; 5-hour incubation, 10 to 30 minutes after bead addition): presence of the beads within cells
oxidation of pyrogallol, activity as stimulant [5]: most active stimulant
stability of the product [6]: at least 3 months

lipopolysaccharide [reference compound]
change in absorbance of cytochrome c ([3]; lipopolysaccharide positive control): increase in absorbance of cytochrome c
